Legend:
NIH3T3 = assay: MTS cytotoxicity assay, NIH3T3; format: cell-based; details: Mus musculus; NIH3T3, MTS cell viability
Method: (§1) Cytotoxicity effect of dissociable curcumin-hyaluronan complex, the curcumin-hyaluronan complex having a substantially non-acid labile covalent bond and free curcumin was detected by MTS (3-(4,5-dimethylthiazol-2yl)-5-(3-[…]-2-(4-sulfophenyl)-2H-tetrazolium) assay. The formazan color intensity was measured directly from 96 well plates in terms of absorbance at 490 nm and 630 nm using a 96-well multi-scanner (MRX Revelation; Dynex Technologies). For calculating cell viability (%) all the appropriate correction was made and the IC50 values were determined from sigmoidal fitting of the data. FIGS. 3-5 represent confocal microscopy images representing the uptake of curcumin and the dissociable complex into the C-13, NIH3T3 and RA-8001 cell lines.

MDAMB231 = assay: MTS cytotoxicity assay, MDAMB231; format: cell-based; details: Homo sapiens, MDA-MB-231; MDAMB231, MTS cell viability
Method: as §1

RA-8001 = assay: MTS cytotoxicity assay, RA-8001; format: cell-based; details: Homo sapiens; RA-8001, MTS cell viability
Method: as §1

MCF7 (Dox resistance) = assay: MTS cytotoxicity assay, MCF7 (Dox resistance); format: cell-based; details: Homo sapiens, MTS cell viability
Method: as §1

MCF7 = details: from Simon et al., Cancer Lett., (1998), 129, 111; cited from earlier work
C-13 = assay: MTS cytotoxicity assay, C-13; format: cell-based; details: Homo sapiens, C13; C-13, MTS cell viability
Method: as §1

COc1cc(/C=C/C(=O)CC(=O)/C=C/c2ccc(O)c(OC)c2)ccc1O [Curcumin]
IC50 (NIH3T3): 23.9 ± 3.19 µM
IC50 (MDAMB231): 27.5 ± 3.36 µM
IC50 (RA-8001): 11.1 ± 2.3 µM
IC50 (MCF7 (Dox resistance)): 27.4 ± 0.892 µM
IC50 (MCF7): 15 µM
IC50 (C-13): 22.2 µM
